Data from ChEMBL document CHEMBL1201862, “PubChem BioAssay data set” (2004).
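96-well plates; 48 h exposure; 5 concentrations. Endpoints by linear interpolation between flanking doses. Not reached: highest tested concentration assigned. GI50 = concentration required for 50% inhibition of growth.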 Calls of active or inactive are those of the source. Cut-off read from the data, not from the text of the source: active = GI50 up to about 1.1 µM and inactive = higher.

Legend:
Assay in all cases: NCI-60 cell line screen, 48 h
[1] = system: TK-10
[2] = system: HCC 2998
[3] = system: SNB-75
[4] = system: SN12C
[5] = system: DLD-1
[6] = system: HOP-92
[7] = system: KM-20L2
[8] = system: U-251
[9] = system: RPMI-8226
[10] = system: M14
[11] = system: LOX IMVI
[12] = system: NCI-H23
[13] = system: SW-620
[14] = system: HT-29
[15] = system: DMS-114
[16] = system: RXF 393
[17] = system: M19-MEL
[18] = system: XF498
[19] = system: DMS-273
[20] = system: CCRF-CEM
[21] = system: NCI-H226
[22] = system: EKVX
[23] = system: SK-OV-3
[24] = system: CAKI-1
[25] = system: NCI-H460
[26] = system: A549
[27] = system: SR
[28] = system: SF-268
[29] = system: COLO 205
[30] = system: SK-MEL-2
[31] = system: SF-295
[32] = system: HL-60
[33] = system: UACC-62
[34] = system: HOP-18
[35] = system: SF-539
[36] = system: ACHN
[37] = system: LXFL 529
[38] = system: Malme-3M
[39] = system: 786-0
[40] = system: OVCAR-4
[41] = system: HOP-62
[42] = system: IGROV-1
[43] = system: KM12
[44] = system: SNB-19
[45] = system: OVCAR-8
[46] = system: K562
[47] = system: HCT-15
[48] = system: SNB-78
[49] = system: OVCAR-3
[50] = system: SK-MEL-5
[51] = system: UO-31
[52] = system: MOLT-4
[53] = system: NCI-H522
[54] = system: SK-MEL-28
[55] = system: HCT-116
[56] = system: A498
[57] = system: OVCAR-5
[58] = system: UACC-257

Measured: GI50

COc1ccc(-c2cc(O)c3cc4c(cc3n2)OCO4)cc1OC
inactive: [1] > 100 µM | [2] > 100 µM | [3] > 100 µM | [4] > 100 µM | [5] > 100 µM | [6] > 100 µM | [7] > 100 µM | [8] > 100 µM | [9] > 100 µM | [10] > 100 µM | [11] > 100 µM | [12] > 100 µM | [13] > 100 µM | [14] > 100 µM | [15] > 100 µM | [16] > 100 µM | [17] > 100 µM | [18] > 100 µM | [19] > 100 µM | [20] > 100 µM | [21] > 100 µM | [22] > 100 µM | [23] > 100 µM | [24] > 100 µM | [25] > 100 µM | [26] > 100 µM | [27] 45 µM | [28] > 100 µM | [29] > 100 µM | [30] > 100 µM | [31] > 100 µM | [32] > 100 µM | [33] > 100 µM | [34] > 100 µM | [35] > 100 µM | [36] > 100 µM | [37] > 100 µM | [38] > 100 µM | [39] > 100 µM | [40] > 100 µM | [41] > 100 µM | [42] > 100 µM | [43] > 100 µM | [44] > 100 µM | [45] > 100 µM | [46] > 100 µM | [48] > 100 µM | [49] > 100 µM | [50] 65.6 µM | [51] > 100 µM | [52] > 100 µM | [53] > 100 µM | [54] > 100 µM | [55] > 100 µM
> 100 µM: [47]

COC(=O)CCC(=O)N1C/C(=C\c2ccccc2)C(=O)/C(=C/c2ccccc2)C1
0.432 µM: [47]
active: [9] 0.416 µM | [11] 0.447 µM | [13] 0.191 µM | [19] 0.708 µM | [43] 0.807 µM | [55] 0.41 µM
inactive: [1] 4.41 µM | [2] 1.67 µM | [3] 2.29 µM | [4] 1.86 µM | [5] 2.04 µM | [6] 6.03 µM | [7] 2.24 µM | [8] 1.24 µM | [10] 1.98 µM | [12] 2.14 µM | [14] 1.72 µM | [15] 1.73 µM | [16] 2.06 µM | [17] 2.39 µM | [18] 5.87 µM | [20] 2.74 µM | [21] 3.41 µM | [22] 3.94 µM | [23] 4.16 µM | [56] 2.24 µM | [24] 1.75 µM | [25] 2.43 µM | [26] 3.64 µM | [27] 1.18 µM | [28] 2.28 µM | [29] 2.06 µM | [31] 2.31 µM | [33] 2.11 µM | [34] 2.34 µM | [35] 2.94 µM | [57] 2.7 µM | [36] 1.97 µM | [37] 2.09 µM | [38] 2.34 µM | [39] 2.03 µM | [40] 2.03 µM | [41] 12.6 µM | [42] 1.79 µM | [58] 1.89 µM | [44] 3.82 µM | [45] 3.1 µM | [46] 1.43 µM | [48] 2.77 µM | [49] 2.31 µM | [50] 2.2 µM | [51] 2.04 µM | [52] 1.83 µM | [54] 2.31 µM

OC1C2CCC1C1C3C=CC(C3)C21 (centres undefined)
inactive: [1] > 100 µM | [3] 46.6 µM | [5] > 100 µM | [6] 34.4 µM | [7] 77.3 µM | [8] > 100 µM | [9] 42.9 µM | [10] > 100 µM | [11] 86.5 µM | [12] 52.1 µM | [13] > 100 µM | [14] > 100 µM | [15] 59.6 µM | [16] 47 µM | [17] > 100 µM | [18] > 100 µM | [19] 94.4 µM | [20] 39.6 µM | [21] 58.5 µM | [22] > 100 µM | [23] > 100 µM | [24] 64.9 µM | [25] > 100 µM | [26] 57 µM | [27] 54.7 µM | [28] > 100 µM | [29] > 100 µM | [30] 32.8 µM | [31] 61.5 µM | [32] 38.1 µM | [33] > 100 µM | [34] > 100 µM | [57] 63.4 µM | [36] 95.9 µM | [37] 96.4 µM | [38] > 100 µM | [39] > 100 µM | [40] > 100 µM | [41] > 100 µM | [42] > 100 µM | [43] 99.3 µM | [58] > 100 µM | [44] > 100 µM | [45] > 100 µM | [46] 70.6 µM | [48] > 100 µM | [49] > 100 µM | [50] 87.3 µM | [51] > 100 µM | [52] 64.9 µM | [53] 50.9 µM | [54] > 100 µM | [55] 79.4 µM
77.4 µM: [47]

O=C(CNC(=O)OCc1ccccc1)Oc1ccccc1
inactive: [1] > 100 µM | [2] > 100 µM | [3] > 100 µM | [4] > 100 µM | [5] > 100 µM | [6] > 100 µM | [7] > 100 µM | [8] > 100 µM | [9] > 100 µM | [10] > 100 µM | [11] > 100 µM | [12] > 100 µM | [14] > 100 µM | [15] > 100 µM | [16] > 100 µM | [17] > 100 µM | [18] > 100 µM | [19] > 100 µM | [20] > 100 µM | [21] > 100 µM | [22] > 100 µM | [23] > 100 µM | [56] > 100 µM | [25] > 100 µM | [26] > 100 µM | [27] > 100 µM | [28] > 100 µM | [29] > 100 µM | [30] > 100 µM | [31] > 100 µM | [32] > 100 µM | [33] > 100 µM | [34] > 100 µM | [35] > 100 µM | [57] > 100 µM | [36] > 100 µM | [37] > 100 µM | [38] > 100 µM | [39] > 100 µM | [40] > 100 µM | [41] > 100 µM | [42] > 100 µM | [43] > 100 µM | [58] > 100 µM | [45] > 100 µM | [46] > 100 µM | [48] > 100 µM | [49] > 100 µM | [50] > 100 µM | [51] > 100 µM | [52] > 100 µM | [53] > 100 µM | [54] > 100 µM | [55] > 100 µM
> 100 µM: [47]
